# Source: patent US7094758B2, “Apoptotic compounds” (Board of Regents, The University of Texas System, priority 2000, dated 2006)
# B1: Smac: Second mitochondria-derived activator of caspases (DIABLO); mature form contains 184 amino acids (protein, UniProt Q9NR28 22-239, looked up)
# Diablo IAP-binding …: LCVPVVANFKKRCFSELIRPWHKTVTIGFGVTLCAVPIAQKSEPHSLSSEALMRRAVSLVTDSTSTFLSQTTYALIEAITEYTKAVYTLTSLYRQYTSLLGKMNSEEEDEVWQVIIGARAEMTSKHQEYLKLETTWMTAVGLSEMAAEAAYQTGADQASITARNHIQLVKLQVEEVHQLSRKAETKLAEAQIEELRQKTQEEGEERAESEQEAYLRED
# Columns and labels:
# [1] = tested on: Wap-ras tumors; assay: In vivo therapy in the WAP-RAS transgenic model; conditions: Wap-ras transgenic mice with well developed tumors; peptoid 20 mpk po, paclitaxel 5 mpk ip
# Method: Peptoid and Paclitaxel combination efficacy is also evaluated in the Wap-ras transgenic model.
# Peptoid (20 mpk/dosing po) was dissolved in 20% hydroxyl-propyl-betacyclodexatrin (Vehicle I). 0.2 ml of peptoid solution is the oral dosing volume. Paclitaxel (5 mpk/dosing ip) was dissolved in a diluted ethanol/cremophor EL solution (vehicle II) and the i.p. dosing volume for paclitaxel was 0.1 ml.
# The mice are weighed, randomized, and ear-marked on Day 0. Peptoid treatment and Vehicle I treatment began on Day 1 and continued every 12 hours until Day 21. Paclitaxel and Vehicle II treatments are started on Day 4 and continued daily on Day 5, 6, and 7.
# [2] = tested on: procaspase-3; assay: Hela cell extracts: radiolabeled procaspase-3 activation assay; type: biochemical; conditions: S-100 extracts of HeLa cells, 35S-labeled caspase-3; AV peptoids (50 nM), Smac peptides 30–1000 mM; 30° C., 1 hr
# Method: […] S-100 extracts of HeLa cells were incubated alone (Control), or with AV peptoids (50 nM) nM, or with […] of N-terminal Smac peptides in different lengths. The reactions were carried out with the addition of 1 mM DATP, 1 mM additional MgCl2, 0.2 mg/ml horse heart cytochrome c, and […] of in vitro translated, ^35S-labeled caspase-3 in a final volume of […]. The reaction mixtures were incubated at 30° C. for 1 hr followed by electrophoresis on a 15% PAGE gel. The gel was subsequently transferred onto a nitrocellulose filter and exposed to a phosphoimaging cassette.
# [3] = molecular target: T1, second BIR (baculoviral IAP repeat) motif of XIAP (Homo sapiens, UniProt P98170); assay: In vitro IAP (BIR) binding/interaction assay, GST-mediated pull-down
# T1 construct: recombinant IAP fragment (second BIR (baculoviral IAP repeat) motif of XIAP)
# Method: Interaction between AV peptoids and IAPs was examined by GST-mediated pull-down assays. Approximately 0.4 mg of a recombinant IAP fragment (second BIR (baculoviral IAP repeat) motif of XIAP) was bound to […] of glutathione resin as a GST-fusion protein and incubated with 0.5 mg of radiolabeled AV peptoids at room temperature. After extensive washing with an assay buffer containing 25 mM Tris, pH 8.0, 150 mM NaCl, and 2 mM dithiothreitol (DTT), the complex was eluted with 5 mM reduced glutathione and visualized by SDS-PAGE with Coomassie staining.
# Smac stimulates activation of procaspase-3 by relieving the IAP inhibition^20, 21. All members of the IAP family contain at least one BIR (baculoviral IAP repeat) motif and many contain three^9.
# T1 sequence (P98170 124-240 limits assumed): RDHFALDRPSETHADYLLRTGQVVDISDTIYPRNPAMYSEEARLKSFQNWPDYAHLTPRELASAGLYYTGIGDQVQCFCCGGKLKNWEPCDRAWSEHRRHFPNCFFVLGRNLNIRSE
molecule,measurement,setting,value
CC(=O)O[C@H]1C(=O)[C@@]2(C)[C@H]([C@H](OC(=O)c3ccccc3)[C@]3(O)C[C@H](OC(=O)[C@H](O)[C@@H](NC(=O)c4ccccc4)c4ccccc4)C(C)=C1C3(C)C)[C@]1(OC(C)=O)CO[C@@H]1C[C@@H]2O [Paclitaxel],"tumor response to treatment, single agent",[1],do not respond
NH2-KQAIPVA-COOH (H-KQAIPVA-OH) [Smac-7R],activation of procaspase-3,[2],did not
same,IAP Binding,"[3]; Table 4, GST pull-down with radiolabeled AV peptoid, grades 0, ++, +++, key not given",0
B1,specific binding/interaction with IAP (BIR domain of XIAP),[3]; second or third BIR domain of XIAP,specifically interact
